The values below come from US20230233500A1, “Gasdermin D (GSDMD) Succination for the Treatment of Inflammatory Disease” (University of Massachusetts, priority 2020, published 2023).

Where a name gives a salt, the structure may show the parent alone.

What all share (type): cell-based, mouse
The subject of test [1] is Bone marrow-derived macrophages (BMDMs). Kind of test: LPS-nigericin inflammasome activation/pyroptosis in BMDMs. The following applies: for LPS-Nig-induced release of LDH / LPS-Nig-induced release of IL-1β / kinetic cell death / formation of GSDMD-N: WT BMDMs; for LPS-Nig-induced release of LDH / LPS-Nig-induced release of IL-1β / LPS-Nig induced pyroptosis (inhibitory effect): LPS 2 hr; for LPS-Nig-induced release of LDH / LPS-Nig-induced release of IL-1β: compound 1 hour (fumarate 25 μM), then nigericin; for LPS-Nig-induced release of IL-1β: ELISA; for kinetic cell death / formation of GSDMD-N: LPS-Nig; for kinetic cell death: SYTOX orange, 0-6 hrs; for formation of GSDMD-N: immunoblot; for LPS-Nig induced pyroptosis (inhibitory effect): BMDMs, compound 25 μM 1 hour, nigericin. The protocol:
Human kidney cell line HEK293T was cultured in Dulbecco's modified Eagle's medium supplemented with 10% (v/v) fetal bovine serum, 100 U/ml penicillin and 100 µg/ml streptomycin. Human peripheral blood monocyte cell line, THP1 cells were cultured in RPMI-1640 medium supplemented with 10% (v/v) fetal bovine serum, 100 U/ml penicillin and 100 µg/ml streptomycin. For isolation of BMDMs, tibias and femurs were removed from wild type and GsdmD^−/− mice and bone marrow was flushed with complete DMEM-medium. Cells were plated in medium containing 20% (v/v) conditioned medium of L929 mouse fibroblasts cultured for 7 days at 37° C. in a humidified atmosphere of 5% C02. Medium was replaced every 3 days.
Conditioned media or serum was collected as indicated and IL-1β or TNF-α, were quantified by sandwich ELISA (R&D Systems).
Cells were plated, treated and incubated in phenol red free medium. Following treatment medium was collected and assessed for LDH release using the CytoTox96 non-radioactive cytotoxicity assay (Promega) as per manufacturer's instructions. Kinetic cell death assays were performed using SytoxOrange and the Biotek Cytation5.
For noncanonical inflammasome activation, cells were primed with […] Pam3CSK4 (Invivogen) for 2 h, followed by transfection of LPS (2 μg/ml) using Lipofectamine 2000 for 16 hours.
Primary BMDMs from WT or GsdmD^−/− mice were cultured in 12-well plates (1×10^6 cells per ml; 1 ml) or 10 cm dishes (2×10^6 cells per ml; 10 ml). HEK293T cells (2.5×10^5 cells per ml; 3 ml) were cultured in 6-well plates and transfected with FLAG-tagged GSDMD constructs where indicated. For cell lysate analysis cells were lysed directly in 1× Lamelli sample buffer. For native gel analysis cells were lysed in NP-40 lysis buffer (50 mM Tris-HCl, pH 7.4, containing 150 mM NaCl, 0.5% (w/v) IgePal, 50 mM NaF, 1 mM Na3VO4, 1 mM dithiothreitol, 1 mM phenylmethylsulfonyl fluoride and protease inhibitor cocktail. For immunoprecipitation of GSDMD, cells were treated as indicated and then collected in 500 μl RIPA buffer, followed by incubation for 15 min on ice. Lysates were incubated with GSDMD antibody and protein A-protein G-agarose was added to each sample, followed by incubation overnight at 4° C. Immunoprecipitates were collected by centrifugation and washed four times with 1 ml of RIPA buffer. Immunprecipates were eluted from beads using 1× sample buffer. Samples were resolved by SDS-PAGE and stained using simply blue safe stain or transferred to nitrocellulose membranes and analyzed by immunoblot. Immunoreactivity was visualized by the Odyssey Imaging System (LICOR Biosciences). For immunoblotting of IL-1β in cell supernatants, conditioned medium was collected and filtered using filter spin columns to reduce salt and remove abundant serum proteins. Filtrates were added to 4×SDS-PAGE sample buffer and resolved by SDS-PAGE for immunoblot analysis. GSDMD (ab209845) and GSDME antibodies were from abcam (ab215191). Caspase 1 antibody was from adipogen. Fumarase antibody was from cell signalling and anti-β-actin (AC-15; A1978) were from Sigma; anti-mouse IRDye™ 680 (926-68070) and anti-rabbit IRDye™ 800 (926-32211) were from LI-COR Biosciences.
Numerous studies have shown that cell metabolism impacts inflammatory responses. LPS activated macrophages switch from oxidative phosphorylation to aerobic glycolysis. Krebs cycle intermediates such as succinate and itaconate accumulate and moonlight as positive and negative regulators of inflammatory gene expression (3-8). To determine if Krebs cycle intermediates modulate pyroptosis, we tested their effect on inflammasome responses. Bone marrow-derived macrophages (BMDMs) were primed with LPS (2 hr) before being exposed to metabolites and then exposed to nigericin (Nig) and inflammasome activation/pyroptosis measured. The metabolites were added after LPS to avoid any impact on transcription. […] Fumarate impaired kinetic cell death (0-6 hrs) (FIG. 1E, FIG. 5A). […]

In test [2] the test system is GAPDH target gene iNos. Put plainly: QPCR/immunoblot of iNos in BMDMs. The following applies: WT BMDMs, HA 1 μM 1 hour, LPS 3 or 6 hours. The protocol:
(§1) FIGS. 7A-K. Fumarate regulates pyroptosis independently of NRF2 and GAPDH. (A-B) Kinetic cell death data of WT primary BMDMs treated with LPS for 2 hours, DMSO (vehicle) or fumarate (25 μM) or heptilidic acid (HA) (0.5 μM or 1 μM) (A) or ML385 (1 μM) (B) followed by nigericin (10 μM) for 6 hours. (C-D) LDH (C) and IL-1B (D) release from WT primary BMDMs treated with LPS for 2 hours, DMSO (vehicle) or fumarate (25 μM) for 1 hour, HA or ML385 (1 μM) for 1 hour followed by nigericin (10 μM) or 1 hour. (E-F) Immunoblot analysis of GSDMD in cell lysates from WT BMDMs treated as in (B) with the indicated inhibitors. (G-H) QPCR (G) and immunoblot (H) analysis of iNos in WT BMDMs treated with DMSO (vehicle) or HA (1 μM) for 1 hour and LPS for 3 (G) or 6 (H) hours. (I) QPCR analysis of Hmox1 mRNA in WT BMDMs treated with DMSO (vehicle) or ML385 (1 μM) for 3 hours. (J-K) LDH assay (J) and immunoblot analysis of GSDMD (K) in WT BMDMs transfected with control non-targeting siRNA or NRF2-specific siRNAs (50 nM) for 48 hours followed by treatment with LPS for 2 hours, DMSO (vehicle) or fumarate (25 μM) and nigericin (10 μM) or 1 hour. A, B, E, F, H, K representative images from 3 independent experiments. C, D, G, I, K pooled data from 3 independent experiments. *, P<0.01, ****, P<0.00001 (Two-way ANOVA). Error bars show means±SD (A, B) or SEM (C, D, G, I, J).
(In general: A western blot detects proteins with antibodies after separation by electrophoresis.)

The subject of test [3] is NRF2 target gene Hmox1. Put plainly: QPCR of Hmox1 mRNA in BMDMs. The conditions noted are these: WT BMDMs, ML385 1 μM 3 hours. As for the experimental part:
as §1

As for `CC(C)[C@H]1CC[C@@]2(CO2)[C@H]2C(=O)OCC(C(=O)O)=C[C@H]12` [Heptilidic acid], in test [1], the “LPS-Nig-induced release of LDH” value was “no impact”, the “LPS-Nig-induced release of IL-1β” value is reported as “no impact”, the kinetic cell death entry is listed as “no impact” and the “formation of GSDMD-N” value is “no impact”. For the same molecule, in test [2], the “expression of GAPDH target gene iNos” value is “inhibited”.
As for `Cc1ccccc1C(=O)N1CCc2cc(-c3nc(NC(=O)Cc4ccc5c(c4)OCO5)sc3C)ccc21` [ML385], in test [1], the “LPS-Nig-induced release of LDH” value is reported as “no impact”, the “LPS-Nig-induced release of IL-1β” value is “no impact”, the kinetic cell death entry is “no impact” and the “formation of GSDMD-N” value was “no impact”. Further, the “expression of NRF2 target gene Hmox1” value in test [3] is recorded as “inhibited”.
As to `COC(=O)/C=C/C(=O)O` [MMF, Monomethyl fumarate], the “LPS-Nig induced pyroptosis (inhibitory effect)” value in test [1] is “no inhibitory effect”.
On to `COC(=O)/C=C/C(=O)OCCN1C(=O)CCC1=O` [diroximel fumarate], for which, in test [1], the “LPS-Nig induced pyroptosis (inhibitory effect)” value was “blocked” and the “formation of GSDMD-N” value is “blocked”.
On to `CCN(CC)C(=O)COC(=O)/C=C/C(=O)OC` [tepilamide fumarate], for which, in test [1], the “LPS-Nig induced pyroptosis (inhibitory effect)” value is “blocked” and the “formation of GSDMD-N” value is on record as “blocked”.
